Format in all cases: cell-based
Experiment [1] concerns the target T1, rat brain N-type calcium channel (α1B+α2δ+β1b) (Rattus norvegicus, UniProt Q02294).
T1 construct: expressed in transfected cells
The experiment in a line: Whole cell patch clamp block of N-type calcium channels expressed in HEK 293 cells. The following applies: step to +20 mV from holding potential −80 mV, 0.1 Hz, 5 mM barium external solution. Here is the method: (§1) Antagonist activity was measured using whole cell patch recordings on human embryonic kidney cells either stably or transiently expressing rat α1B+α2b+β1b channels (N-type channels) with 5 mM barium as a charge carrier.
(§2) For transient expression, host cells, such as human embryonic kidney cells, HEK 293 (ATCC# CRL 1573) were grown in standard DMEM medium supplemented with 2 mM glutamine and 10% fetal bovine serum. HEK 293 cells were transfected by a standard calcium-phosphate-DNA coprecipitation method using the rat α1B+β1b+α2δ N-type calcium channel subunits in a vertebrate expression vector (for example, see Current Protocols in Molecular Biology).
(§3) After an incubation period of from 24 to 72 hrs the culture medium was removed and replaced with external recording solution (see below). Whole cell patch clamp experiments were performed using an Axopatch 200B amplifier (Axon Instruments, Burlingame, Calif.) linked to an IBM compatible personal computer equipped with pCLAMP software. Borosilicate glass patch pipettes (Sutter Instrument Co., Novato, Calif.) were polished (Microforge, Narishige, Japan) to a resistance of about 4 MΩ when filled with cesium methanesulfonate internal solution (composition in MM: 109 CsCH3SO4, 4 MgCl2, 9 EGTA, 9 HEPES, pH 7.2). Cells were bathed in 5 mM Ba^++ (in mM: 5 BaCl2, 1 MgCl2, 10 HEPES, 40 tetraethylammonium chloride, 10 glucose, 87.5 CsCl pH 7.2). Current data shown were elicited by a train of 100 ms test pulses at 0.066 Hz from −100 mV and/or −80 mV to various potentials (min. −20 mV, max. +30 mV). Drugs were perfused directly into the vicinity of the cells using a microperfusion system.
(§4) Normalized dose-response curves were fit (Sigmaplot 4.0, SPSS Inc., Chicago, Ill.) by the Hill equation to determine IC50 values. Steady-state inactivation curves were plotted as the normalized test pulse amplitude following 5 s inactivating prepulses at +10 mV increments. Inactivation curves were fit (Sigmaplot 4.0) with the Boltzman equation, Ipeak (normalized)=1/(1+exp((V−Vh)z/25.6)), where V and Vh are the conditioning and half inactivation potentials, respectively, and z is the slope factor.
(§5) The method of Example 1 was followed with slight modifications as will be apparent from the description below.
(§6) N-type calcium channel blocking activity was assayed in human embryonic kidney cells, HEK 293, stably transfected with the rat brain N-type calcium channel subunits (α1B+α2δ+β1b cDNA subunits). Alternatively, N-type calcium channels (α1B+α2δ+β1b cDNA subunits), L-type channels (α1C+α2δ+β1b cDNA subunits) and P/Q-type channels (α1A+α2δ+β1b cDNA subunits) were transiently expressed in HEK 293 cells. […]
Background: Patch clamp records ionic current or voltage across a cell membrane.

Experiment [2] relates to rat brain N-type calcium channel (α1B+α2δ+β1b). Described as above. The following applies: N-type, L-type and P/Q-type channels compared. Here is the method:
as §1, §2, §3, §4, §5, §6

The target of experiment [3] is T2, P/Q-type channels (α1A+α2δ+β1b) (Homo sapiens, UniProt O00555).
T2 construct: expressed in transfected cells; host or cells: HEK 293 (transient)
The experiment is described as follows: Whole cell patch clamp block of P/Q-type calcium channels transiently expressed in HEK 293 cells. The following applies: step to +20 mV from holding potential −80 mV, 0.1 Hz, 5 mM barium external solution. The method, then:
as §5
(§7) N-type calcium channel blocking activity was assayed in human embryonic kidney cells, HEK 293, stably transfected with the rat brain N-type calcium channel subunits (α1B+α2δ+β1b cDNA subunits). Alternatively, N-type calcium channels (α1B+α2δ+β1b cDNA subunits), L-type channels (α1C+α2δ+β1b cDNA subunits) and P/Q-type channels (α1A+α2δ+β1b cDNA subunits) were transiently expressed in HEK 293 cells. Briefly, cells were cultured in Dulbecco's modified eagle medium (DMEM) supplemented with 10% fetal bovine serum, 200 U/ml penicillin and 0.2 mg/ml streptomycin at 37° C. with 5% CO2. At 85% confluency cells were split with 0.25% trypsin/1 mM EDTA and plated at 10% confluency on glass coverslips. At 12 hours the medium was replaced and the cells transiently transfected using a standard calcium phosphate protocol and the appropriate calcium channel cDNAs. Fresh DMEM was supplied and the cells transferred to 28° C./ 5% CO2. Cells were incubated for 1 to 2 days to whole cell recording.
(§8) Whole cell patch clamp experiments were performed using an Axopatch 200B amplifier (Axon Instruments, Burlingame, Calif.) linked to a personal computer equipped with pCLAMP software. […] Data were analyzed using Clampfit (Axon Instruments) and SigmaPlot 4.0 (Jandel Scientific).

Experiment [4] has as its target T3, L-type channels (α1C+α2δ+β1b) (Homo sapiens, UniProt Q13936).
T3 construct: expressed in transfected cells; host or cells: HEK 293 (transient)
The experiment is described as follows: Whole cell patch clamp block of L-type calcium channels transiently expressed in HEK 293 cells. Conditions: step to +20 mV from holding potential −80 mV, 0.1 Hz, 5 mM barium external solution. Here is the method:
as §5, §7, §8

T1 sequence (Q02294 whole entry): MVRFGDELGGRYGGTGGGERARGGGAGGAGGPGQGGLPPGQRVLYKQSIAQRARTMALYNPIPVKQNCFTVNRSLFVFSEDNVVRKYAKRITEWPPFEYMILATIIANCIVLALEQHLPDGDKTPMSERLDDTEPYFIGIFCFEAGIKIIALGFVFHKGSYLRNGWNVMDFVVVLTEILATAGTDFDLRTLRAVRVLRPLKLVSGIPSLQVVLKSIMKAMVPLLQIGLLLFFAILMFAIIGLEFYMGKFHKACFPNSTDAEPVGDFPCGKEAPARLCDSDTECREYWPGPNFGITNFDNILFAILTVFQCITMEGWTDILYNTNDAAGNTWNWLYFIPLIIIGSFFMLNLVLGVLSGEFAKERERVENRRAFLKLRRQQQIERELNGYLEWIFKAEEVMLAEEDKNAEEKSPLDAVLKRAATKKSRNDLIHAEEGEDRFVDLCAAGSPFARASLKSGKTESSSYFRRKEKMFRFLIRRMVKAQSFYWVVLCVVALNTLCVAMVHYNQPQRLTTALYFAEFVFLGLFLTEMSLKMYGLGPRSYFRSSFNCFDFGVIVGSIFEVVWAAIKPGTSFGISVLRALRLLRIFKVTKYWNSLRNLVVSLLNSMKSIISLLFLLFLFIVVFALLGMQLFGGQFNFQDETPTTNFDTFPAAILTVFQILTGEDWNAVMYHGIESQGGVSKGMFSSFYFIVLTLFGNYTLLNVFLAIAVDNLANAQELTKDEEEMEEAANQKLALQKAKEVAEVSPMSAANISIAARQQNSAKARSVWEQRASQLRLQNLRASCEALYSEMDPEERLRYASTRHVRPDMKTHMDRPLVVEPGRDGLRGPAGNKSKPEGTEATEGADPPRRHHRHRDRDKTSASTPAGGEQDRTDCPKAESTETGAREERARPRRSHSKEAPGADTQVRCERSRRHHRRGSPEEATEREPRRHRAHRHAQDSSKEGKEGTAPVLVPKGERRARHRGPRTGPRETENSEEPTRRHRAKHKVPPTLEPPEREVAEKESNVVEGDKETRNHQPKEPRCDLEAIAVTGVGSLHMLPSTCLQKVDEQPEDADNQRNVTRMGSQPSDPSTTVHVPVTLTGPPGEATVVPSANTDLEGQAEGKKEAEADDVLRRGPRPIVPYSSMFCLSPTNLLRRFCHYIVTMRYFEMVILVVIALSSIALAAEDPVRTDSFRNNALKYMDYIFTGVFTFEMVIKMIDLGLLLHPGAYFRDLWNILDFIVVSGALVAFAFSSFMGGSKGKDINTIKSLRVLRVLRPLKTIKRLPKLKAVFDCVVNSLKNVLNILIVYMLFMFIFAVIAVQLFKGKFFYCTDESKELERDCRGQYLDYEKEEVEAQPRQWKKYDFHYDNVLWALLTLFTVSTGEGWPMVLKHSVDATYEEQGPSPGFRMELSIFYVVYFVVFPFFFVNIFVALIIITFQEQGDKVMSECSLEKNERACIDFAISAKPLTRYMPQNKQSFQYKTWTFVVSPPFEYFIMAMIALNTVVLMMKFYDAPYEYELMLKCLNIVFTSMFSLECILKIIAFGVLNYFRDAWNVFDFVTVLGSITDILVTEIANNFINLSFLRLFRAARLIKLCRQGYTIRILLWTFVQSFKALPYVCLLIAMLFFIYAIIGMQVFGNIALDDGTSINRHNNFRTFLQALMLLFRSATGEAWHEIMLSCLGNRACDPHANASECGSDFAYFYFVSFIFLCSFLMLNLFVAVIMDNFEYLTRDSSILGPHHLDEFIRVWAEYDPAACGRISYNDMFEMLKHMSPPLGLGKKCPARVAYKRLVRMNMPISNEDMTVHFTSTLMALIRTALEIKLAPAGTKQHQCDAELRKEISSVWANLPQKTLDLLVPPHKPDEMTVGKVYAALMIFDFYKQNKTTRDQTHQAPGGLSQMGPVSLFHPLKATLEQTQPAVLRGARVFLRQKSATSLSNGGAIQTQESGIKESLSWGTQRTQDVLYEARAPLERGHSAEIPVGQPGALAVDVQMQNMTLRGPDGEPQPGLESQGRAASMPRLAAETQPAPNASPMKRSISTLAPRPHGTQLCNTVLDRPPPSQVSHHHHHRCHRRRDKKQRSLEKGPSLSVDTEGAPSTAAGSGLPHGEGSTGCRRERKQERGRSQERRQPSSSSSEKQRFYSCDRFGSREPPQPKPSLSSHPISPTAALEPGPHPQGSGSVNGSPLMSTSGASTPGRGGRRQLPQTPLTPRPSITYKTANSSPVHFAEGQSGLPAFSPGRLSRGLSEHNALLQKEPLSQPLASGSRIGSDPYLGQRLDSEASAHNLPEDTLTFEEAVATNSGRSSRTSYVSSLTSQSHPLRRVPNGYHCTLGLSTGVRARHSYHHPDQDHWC
T3 sequence (Q13936 whole entry): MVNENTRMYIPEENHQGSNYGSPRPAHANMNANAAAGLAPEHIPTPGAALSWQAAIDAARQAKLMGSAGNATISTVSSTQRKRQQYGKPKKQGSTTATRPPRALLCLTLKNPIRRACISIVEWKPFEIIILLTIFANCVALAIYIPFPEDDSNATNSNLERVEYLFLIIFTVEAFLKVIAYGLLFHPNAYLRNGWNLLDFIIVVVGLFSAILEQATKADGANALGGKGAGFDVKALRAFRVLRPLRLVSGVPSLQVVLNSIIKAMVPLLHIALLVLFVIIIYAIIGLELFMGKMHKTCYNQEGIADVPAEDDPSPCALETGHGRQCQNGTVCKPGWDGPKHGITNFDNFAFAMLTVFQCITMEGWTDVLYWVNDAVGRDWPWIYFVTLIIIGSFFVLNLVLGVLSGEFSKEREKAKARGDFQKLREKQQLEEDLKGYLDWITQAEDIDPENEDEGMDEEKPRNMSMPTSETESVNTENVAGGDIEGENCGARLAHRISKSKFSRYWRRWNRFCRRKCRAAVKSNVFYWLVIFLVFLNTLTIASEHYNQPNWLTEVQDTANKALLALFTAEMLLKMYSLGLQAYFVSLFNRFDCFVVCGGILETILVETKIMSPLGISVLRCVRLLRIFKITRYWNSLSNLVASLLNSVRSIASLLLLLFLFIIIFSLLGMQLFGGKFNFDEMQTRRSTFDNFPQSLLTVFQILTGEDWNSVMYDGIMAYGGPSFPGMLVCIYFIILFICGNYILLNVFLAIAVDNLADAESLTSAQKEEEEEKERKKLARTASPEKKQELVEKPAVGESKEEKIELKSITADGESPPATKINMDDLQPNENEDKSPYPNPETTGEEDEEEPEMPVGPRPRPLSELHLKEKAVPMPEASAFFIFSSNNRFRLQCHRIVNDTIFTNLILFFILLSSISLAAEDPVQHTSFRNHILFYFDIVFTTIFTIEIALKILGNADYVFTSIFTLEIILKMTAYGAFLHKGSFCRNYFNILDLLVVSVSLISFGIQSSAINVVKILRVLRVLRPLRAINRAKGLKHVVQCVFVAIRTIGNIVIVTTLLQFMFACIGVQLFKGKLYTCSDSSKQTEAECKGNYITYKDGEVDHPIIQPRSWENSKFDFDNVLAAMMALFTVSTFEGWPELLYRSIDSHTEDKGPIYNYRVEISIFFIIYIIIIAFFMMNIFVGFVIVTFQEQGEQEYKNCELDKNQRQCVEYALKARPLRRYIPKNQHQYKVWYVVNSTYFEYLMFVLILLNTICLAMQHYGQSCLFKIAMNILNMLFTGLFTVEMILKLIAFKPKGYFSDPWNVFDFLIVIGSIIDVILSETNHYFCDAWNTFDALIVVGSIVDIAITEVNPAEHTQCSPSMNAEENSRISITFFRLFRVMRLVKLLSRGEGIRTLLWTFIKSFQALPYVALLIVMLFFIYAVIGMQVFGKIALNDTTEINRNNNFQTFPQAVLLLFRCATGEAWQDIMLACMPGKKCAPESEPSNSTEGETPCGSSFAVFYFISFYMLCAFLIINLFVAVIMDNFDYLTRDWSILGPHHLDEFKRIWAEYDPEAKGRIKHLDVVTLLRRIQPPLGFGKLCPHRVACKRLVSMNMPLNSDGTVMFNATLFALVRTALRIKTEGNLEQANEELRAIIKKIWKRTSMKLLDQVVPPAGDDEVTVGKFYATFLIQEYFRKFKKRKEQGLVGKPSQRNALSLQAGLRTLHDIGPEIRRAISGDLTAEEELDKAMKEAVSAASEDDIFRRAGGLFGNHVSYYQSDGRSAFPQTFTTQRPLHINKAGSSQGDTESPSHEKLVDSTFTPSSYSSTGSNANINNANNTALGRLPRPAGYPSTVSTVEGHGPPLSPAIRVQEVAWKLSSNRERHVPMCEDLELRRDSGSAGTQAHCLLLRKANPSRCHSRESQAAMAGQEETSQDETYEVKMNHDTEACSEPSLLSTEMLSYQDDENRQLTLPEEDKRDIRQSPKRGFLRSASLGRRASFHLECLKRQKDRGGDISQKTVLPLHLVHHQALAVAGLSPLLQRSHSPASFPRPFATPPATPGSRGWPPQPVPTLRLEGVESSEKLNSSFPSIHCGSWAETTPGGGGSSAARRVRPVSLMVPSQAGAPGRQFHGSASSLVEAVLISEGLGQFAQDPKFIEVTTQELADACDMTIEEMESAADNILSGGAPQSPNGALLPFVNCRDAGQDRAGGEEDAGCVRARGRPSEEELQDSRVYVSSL

By IC50 is commonly meant the concentration that gives 50% inhibition. `O=C(CCOc1ccc(Cl)cc1Cl)Nc1nnc(C(F)(F)F)s1` [NT044, N-2-(5-trifluoromethyl-1,3,4-thiadiazolyl)-3-(2,4-dichlorophenoxy) propionyl amide]: the IC50 in experiment [1] was 0.14 µM; in experiment [3], 6.4 µM; in experiment [4] it was 2.06 µM. The “selectivity for N-type channels versus L-type and P/Q-type (in words)” value in experiment [2] is listed as “somewhat selective for N-type channels”.
Turning to `O=C(COC(c1ccc(Cl)cc1)c1ccc(Cl)cc1)Nc1ncc([N+](=O)[O-])s1` [NT051], the IC50 in experiment [1] came out at 0.13 µM; in experiment [3], 6.8 µM; in experiment [4] it was 1.91 µM. Also, the “selectivity for N-type channels versus L-type and P/Q-type (in words)” value in experiment [2] is on record as “somewhat selective for N-type channels”.

(Values after patent US20030199523A1, “Heterocyclic calcium in channel blockers” (priority 2002, published 2003).)
